Laboratory results as given in patent US20220354957A1, “PEPTIDES TARGETING MACROPHAGES, AND CONJUGATES, COMPOSITIONS, AND USES THEREOF” (Twinpig Biolab, Inc., priority 2021, published 2022).
Where no end group is shown, it is not given here.

Assays:
[1] = system: THP-1-derived M2 macrophages; assay: Cytotoxicity assay (CCK-8 cell viability); format: cell-based, human; conditions: 0.05-20 μM, 24 h
Experimental: (§1) THP-1 cells were differentiated into macrophages by 24 h incubation with 100 nM PMA and polarized in M2 macrophages by incubation with 20 ng/ml of IL-4 and 20 ng/ml of IL-13 for 72 h. Polarized cells were treated with increasing concentrations of TAMpep and fragments of TAMpep (0.05-20 μM) for 24 h. Cell viability was analyzed using the CCK-8 assay: CCK-8 reagent (Enzo Life Sciences) was added to each well; incubation was continued for 2 hours, and absorbance was measured at 450 nm with a microplate reader (Molecular Devices).

[2] = system: THP-1-derived M2 macrophages; assay: Affinity test of FITC-conjugated peptides by flow cytometry; format: cell-based, human
Experimental: THP-1 monocytes were differentiated into macrophages by 24 h incubation with 100 nM phorbol 12-myristate 13-acetate (PMA, Sigma) followed by 24 h incubation in RPMI medium (Invitrogen). Macrophages were polarized in M1 macrophages (M1) by incubation with 20 ng/ml of IFN-γ (Prospec) and 100 ng/ml of LPS (Sigma). Macrophage M2 polarization(M2) was obtained by incubation with 20 ng/ml of interleukin (IL) 4 (Prospec) and 20 ng/ml of interleukin 13 (Prospec). M2-like tumor-associated macrophages were polarized by incubation with 20% conditioned medium of PC3 cells.
THP-1 cells were differentiated into macrophages by a 24 h incubation with 100 nM PMA and polarized in M2 macrophages by incubation with 20 ng/ml of IL-4 and 20 ng/ml of IL-13 for 72 h. Polarized cells were treated with 50 nM TAMpep and fragments of TAMpep or Mpep and alanine library of Mpep conjugated with FITC for 1 h. To test change of macrophage population in melanoma tissue, the single cells were isolated from tumor tissue through a 40 μm nylon mesh strainer after dissociation by DNase I (1 U/mL) and collagenase D (1 mg/ml). Cells were detected on BD FACSCalibur and BD FACSCantoII instruments and analyzed by FlowJo software.

[3] = system: M2 macrophages; assay: Affinity by immunofluorescence microscopy; format: cell-based, human
[4] = system: TRAMP-C2 cells; assay: Mouse model of prostate cancer (subcutaneous TRAMP-C2); format: in vivo; conditions: TRAMP-C2 prostate cancer model
From the text: (§2) BALB/c and C57BL/6 (B6) wild-type mice were purchased from DBL. For the subcutaneous tumor model of melanoma and prostate cancer, CT26 (3×10^5 cells/mouse), B16F10 (1×10^6 cells/mouse) and TRAMP-C2 cells (1×10^6 cells/mouse) were mixed with Matrigel matrix (Corning) and inoculated subcutaneously into the right flank of the mice, and 4T1 (1×10^5 cells/mouse) cells mixed with Matrigel matrix and inoculated into a 4th mammary fat pad of the mice. TAMpepK, and MpepK peptides (200 nmol/kg) were injected intraperitoneally every 3 days, beginning at day 7 after tumor inoculation, and tumor volume was measured by electronic caliper. All tumor tissues were harvested after the end of the study and tumor weight was measured by an electronic balance.
Cells were harvested and lysed in PRO-PREP protein extraction solution (iNtRON, Bio Inc, Sungnam, Korea). Protein concentrations were measured with a Bradford Protein Assay Reagent kit (Bio-Rad, Richmond, CA, USA). Proteins were fractionated by 10% SDS-polyacrylamide gels electrophoresis (PAGE), and transferred onto polyvinylidene difluoride (PVDF) membranes. These were incubated with anti-arginase 1, anti-CD206, anti-caspase 3, anti-E-cadherin, anti-fibronectin, anti-PCNA, anti-TGF-β, anti-MMP9, and anti-β-actin Ab as primary antibodies. Goat anti-rabbit horseradish peroxidase-conjugated IgG or goat anti-mouse horseradish peroxidase-conjugated IgG (Abcam, Cambridge, Mass., USA) served as secondary antibodies. Protein bands were detected with a chemiluminescence reagent kit (SurModics).

[5] = Cytotoxicity assay (CCK-8 cell viability); format: cell-based, human; conditions: THP-1-derived M2 macrophages, CCK-8
Experimental: as §1

[6] = system: mouse RBC; assay: Hemolytic activity assay; format: cell-based; conditions: 0.1-50 μM, 37° C., 1 h, read-out: hemolysis IC50
Experimental: Mouse blood samples were collected in tubes containing heparin as an anticoagulant and stored at 4 ° C. before use. Whole blood sample were centrifuged at 1,500×g for 5 min and the resulting plasma fraction was removed from the samples. The pellets were washed with an equal volume of saline, mixing by inversion. The centrifuging and washing steps were repeated 5 times. Red blood cells were counted by a hemocytometer and adjusted to […]. Red blood cells were then incubated at 37° C. for 1 h in 1% Triton X-100 (positive control), in PBS (blank), or with increasing concentrations of TAMpep and Mpep (0.1-50 μM) were evaluated. The samples were then centrifuged at 10,000 g for 5 min, the supernatant was separated from the pellet, and its absorbance measured at 570 nm. The relative optical density compared to that of the suspension treated with 1% Triton X-100 was defined as the percentage of hemolysis.

[7] = Cytotoxicity in human melanoma cells; format: cell-based; conditions: Sk-Mel-28 cells
[8] = system: murine melanoma cells (B16F10 cell line); assay: Mouse model of melanoma (subcutaneous B16F10); format: in vivo; conditions: B16F10 melanoma model, vs PBS group
From the text: as §2

CC[C@H](C)[C@H](NC(=O)[C@H](CC(C)C)NC(=O)[C@H](C)NC(=O)[C@@H]1CCCN1C(=O)[C@H](CC(C)C)NC(=O)CNC(=O)[C@@H](NC(=O)[C@@H](NC(=O)[C@H](CC(C)C)NC(=O)[C@@H](NC(C)=O)C(C)C)[C@@H](C)O)[C@@H](C)O)C(=O)N[C@@H](CO)C(=O)N[C@@H](Cc1c[nH]c2ccccc12)C(=O)N[C@H](C(=O)N[C@@H](CCCCN)C(=O)N[C@@H](CCCNC(=N)N)C(=O)N[C@@H](CCCCN)C(=O)N[C@@H](CCCNC(=N)N)C(=O)N[C@@H](CCC(N)=O)C(=O)N[C@@H](CCC(N)=O)C(=O)O)[C@@H](C)CC [Mpep, Val-Leu-Thr-Thr-Gly-Leu-Pro-Ala-Leu-Ile-Ser-Trp-Ile-Lys-Arg-Lys-Arg-Gln-Gln]
cytotoxic effect in M2 macrophages (in words) [1]: low cytotoxicity

CC[C@H](C)[C@H](NC(=O)CN)C(=O)NCC(=O)N[C@@H](C)C(=O)N[C@H](C(=O)N[C@@H](CC(C)C)C(=O)N[C@@H](CCCCN)C(=O)N[C@H](C(=O)N[C@@H](CC(C)C)C(=O)N[C@H](C(=O)N[C@H](C(=O)NCC(=O)N[C@@H](CC(C)C)C(=O)N1CCC[C@H]1C(=O)N[C@@H](C)C(=O)N[C@@H](CC(C)C)C(=O)N[C@H](C(=O)N[C@@H](CO)C(=O)N[C@@H](Cc1c[nH]c2ccccc12)C(=O)N[C@H](C(=O)N[C@@H](CCCCN)C(=O)N[C@@H](CCCNC(=N)N)C(=O)N[C@@H](CCCCN)C(=O)N[C@@H](CCCNC(=N)N)C(=O)N[C@@H](CCC(N)=O)C(=O)N[C@@H](CCC(N)=O)C(N)=O)[C@@H](C)CC)[C@@H](C)CC)[C@@H](C)O)[C@@H](C)O)C(C)C)C(C)C [TAMpep, reference compound]
affinity in M2 macrophages compared to M0 and M1 macrophages ([2]; FITC-conjugated peptides, THP-1-derived M0, M1, M2, FACS): significantly more high affinity | affinity in M2 macrophages by immunofluorescence microscopy [3]: high affinity | body weight of mice [4]: did not significantly change

CC[C@H](C)[C@H](NC(=O)CNC(C)=O)C(=O)NCC(=O)N[C@@H](C)C(=O)N[C@H](C(=O)N[C@@H](CC(C)C)C(=O)N[C@@H](CCCCN)C(=O)N[C@H](C(=O)N[C@@H](CC(C)C)C(=O)N[C@H](C(=O)N[C@H](C(=O)NCC(=O)N[C@@H](CC(C)C)C(=O)N1CCC[C@H]1C(=O)N[C@@H](C)C(=O)N[C@@H](CC(C)C)C(=O)N[C@H](C(=O)N[C@@H](CO)C(=O)N[C@@H](Cc1c[nH]c2ccccc12)C(=O)N[C@H](C(=O)N[C@@H](CCCCN)C(=O)N[C@@H](CCCNC(=N)N)C(=O)N[C@@H](CCCCN)C(=O)N[C@@H](CCCNC(=N)N)C(=O)N[C@@H](CCC(N)=O)C(=O)N[C@@H](CCC(N)=O)C(=O)NCC(=O)NCC(=O)NCC(=O)NCC(=O)N[C@@H](CO)C(=O)N[C@H](CCCCN)C(=O)N[C@H](CC(C)C)C(=O)N[C@H](C)C(=O)N[C@H](CCCCN)C(=O)N[C@H](CC(C)C)C(=O)N[C@H](C)C(=O)N[C@H](CCCCN)C(=O)N[C@H](CCCCN)C(=O)N[C@H](CC(C)C)C(=O)N[C@H](C)C(=O)N[C@H](CCCCN)C(=O)N[C@H](CC(C)C)C(=O)N[C@H](C)C(=O)N[C@H](CCCCN)C(=O)O)[C@@H](C)CC)[C@@H](C)CC)[C@@H](C)O)[C@@H](C)O)C(C)C)C(C)C [TAMpepK]
IC50 [5]: 1060 nM | IC50 [6]: 1120 nM | IC50 [7]: 3580 nM | body weight of mice [8]: not significantly changed | body weight of mice [4]: did not significantly change

CC(=O)N[C@H](CCCCN)C(=O)N[C@H](CC(C)C)C(=O)N[C@H](C)C(=O)N[C@H](CCCCN)C(=O)N[C@H](CC(C)C)C(=O)N[C@H](C)C(=O)N[C@H](CCCCN)C(=O)N[C@H](CCCCN)C(=O)N[C@H](CC(C)C)C(=O)N[C@H](C)C(=O)N[C@H](CCCCN)C(=O)N[C@H](CC(C)C)C(=O)N[C@H](C)C(=O)N[C@H](CCCCN)C(=O)O [dKLA, d-Lys-d-Leu-d-Ala-d-Lys-d-Leu-d-Ala-d-Lys-d-Lys-d-Leu-d-Ala-d-Lys-d-Leu-d-Ala-d-Lys, reference compound]
body weight of mice [4]: did not significantly change

A18: the eleventh S (serine) of Mpep is substituted with alanine (SEQ ID NO:21) (Ac-VLTTGLPALIAWIKRKRQQ)
affinity of alanine-substituted Mpep peptides in M2 macrophages ([2]; alanine-substituted library of Mpep, FITC-conjugated, FACS): increased affinity
